Experimental data: patent publication US11274090B2, “P300/CBP HAT inhibitors” (Constellation Pharmaceuticals, Inc., priority 2018, dated 2022)

target: p300 HAT domain (residues 1287-1666) (Homo sapiens (Human), UniProt Q09472); test: p300 HAT SPA assay (scintillation proximity assay, acetylation of biotinylated H3(1-21) peptide); type: biochemical; conditions: average of at least 2 replicate titrations
Protocol: In a typical experiment the p300 HAT inhibitory activity of the compounds described herein was determined in accordance with the following experimental method.
The expressed protein was purified by Ni2+ affinity, followed by anion exchange chromatography. Appropriate fractions were pooled and buffer exchanged into 20 mM Hepes pH 7.5, 150 mM NaCl, and 1 mM TCEP.
35 μL of the reaction volume was transferred to a 384-well streptavidin FlashPlate (PerkinElmer) using a Bravo liquid handler (Velocity 11) and incubated for 1.5 hr at RT. […] Data were analyzed in Genedata to determine inhibitor IC50 values.

p300 HAT domain (residues 1287-1666), sequence (Q09472 1287-1666): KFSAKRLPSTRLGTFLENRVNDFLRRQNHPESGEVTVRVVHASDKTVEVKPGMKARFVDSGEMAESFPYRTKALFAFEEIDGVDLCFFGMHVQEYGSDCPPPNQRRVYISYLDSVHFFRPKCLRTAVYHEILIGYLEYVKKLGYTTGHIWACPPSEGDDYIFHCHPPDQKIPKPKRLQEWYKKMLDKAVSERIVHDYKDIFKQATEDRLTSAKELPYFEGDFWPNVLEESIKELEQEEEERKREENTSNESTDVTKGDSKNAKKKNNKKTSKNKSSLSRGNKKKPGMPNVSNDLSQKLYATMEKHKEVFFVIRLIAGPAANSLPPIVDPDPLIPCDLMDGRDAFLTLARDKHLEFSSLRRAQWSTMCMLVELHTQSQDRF

Row | SMILES | IC50 [nM]
1 | CC(CNC(C(=O)Nc1ccc(-c2cnn(C)c2)cc1)c1ccccc1)c1ccc(Cl)cc1 (single isomer, unassigned) [2 Isomer 4] | > 5000
2 | Cc1ncc(-c2ccc(NC(=O)[C@@H](NC[C@@H](C)c3ccc(C#N)cc3)c3ccccc3)nc2)cn1 (single isomer, unassigned; isomer 1) [6 Isomer 1] | 1680
3 | Cn1cc(-c2ccc(NC(=O)C(NCCc3ccc(C#N)cc3)c3ccccc3)nn2)cn1 (single isomer, unassigned) [57 Isomer 1] | 815
4 | CC1CN(C)C(=O)CN1c1ccc(NC(=O)C(NC[C@@H](C)c2ccc(C#N)cc2)c2ccccc2)nc1 (single isomer, unassigned) [125 Isomer 2] | > 2000
5 | NS(=O)(=O)c1ccc(CCN[C@H](C(=O)N2CCc3ccccc32)c2ccccc2)cc1 (single isomer, unassigned) [153 Isomer 1] | > 60000
6 | N#Cc1ccc(CCNC(C(=O)Nc2ccn(-c3ccccc3)n2)c2ccccc2)cc1 (single isomer, unassigned) [50 Isomer 2] | > 5000
7 | Cc1nc(NC(=O)C(NCC(C)c2ccc(C#N)cc2)c2ccccc2)ccc1-c1cnn(C)c1 (single isomer, unassigned) [39 Isomer 1] | > 2000
8 | Cn1cc(-c2ccc3c(c2)CCCN3C(=O)[C@@H](NCCc2ccc(C#N)cc2)c2ccccc2)cn1 (single isomer, unassigned) [151 Isomer 2] | > 5000
9 | Cn1cc(-c2ccc(NC(=O)C(NCCc3ccc(Cl)cc3C#N)c3ccccc3)nc2)cn1 (single isomer, unassigned) [94 Isomer 2] | > 2000
10 | Cn1cc(-c2ccc(NC(=O)C(NCCc3ccc(C#N)cc3)C3CCCCC3)nc2)cn1 (single isomer, unassigned) [89 Isomer 2] | 1430
11 | CN1CCN(c2ccc(NC(=O)C(NCCc3ccc(C#N)cc3)c3ccccc3)nc2)CC1 (single isomer, unassigned) [49 Isomer 2] | > 5000
12 | CC(CNC(C(=O)Nc1ccc(-c2cnn(C)c2)cn1)c1ccccc1)c1ccc(C#N)c(F)c1 (single isomer, unassigned) [91 Isomer 3] | 1020
13 | CC(CNC(C(=O)Nc1ccc(N2CCN(CC(F)(F)F)C(=O)C2)cn1)c1ccccc1)c1ccc(C#N)cc1 (single isomer, unassigned) [103 Isomer 3] | 1000
14 | Cc1nnc2n1CCN(c1ccc(NC(=O)C(NCCc3ccc(C#N)cc3)c3ccccc3)nc1)C2 (single isomer, unassigned) [60 Isomer 2] | > 2000
15 | COc1cccc(C(NCCc2ccc(C#N)cc2)C(=O)Nc2ccc(-c3cnn(C)c3)cn2)c1 (single isomer, unassigned) [70 Isomer 1] | > 2000
16 | Cc1nc(NC(=O)C(NCC(C)c2ccc(C#N)cc2)c2ccccc2)ccc1-c1cnn(C)c1 (single isomer, unassigned) [39 Isomer 2] | > 2000
17 | CC(CNC(C(=O)Nc1ccc(-c2cnn(C)n2)cn1)c1ccccc1)c1ccc(C(F)(F)F)cc1 (single isomer, unassigned) [99 Isomer 3] | > 2000
18 | C[C@H](CNC(C(=O)Nc1ccc(-c2cnn(CC(=O)N3CCCC3)c2)cn1)c1ccccc1)c1ccc(C#N)cc1 (single isomer, unassigned) [132 Isomer 1] | 932
19 | COc1ccccc1C(NCCc1ccc(C#N)cc1)C(=O)Nc1ccc(-c2cnn(C)c2)cn1 (single isomer, unassigned) [87 Isomer 2] | > 2000

Row | SMILES | IC50 [nM]
20 | CC(Cc1ccc(Cl)cc1)NC(C(=O)Nc1ccc(-c2cnn(C)c2)cc1)c1ccccc1 (single isomer, unassigned) [3 Isomer 3] | > 5000
21 | Cn1cc(-c2ccc(NC(=O)C(NCCc3ccc(C#N)cc3)C3CCCCC3)nc2)cn1 (single isomer, unassigned) [89 Isomer 1] | > 2000
22 | Cn1cc(-c2ccc(NC(=O)C(NCC(c3ccc(C#N)cc3)C(F)(F)F)c3ccccc3)nc2)cn1 (single isomer, unassigned) [149 Isomer 4] | > 2000
23 | Cc1nc(-c2ccc(NC(=O)C(NC[C@@H](C)c3ccc(C#N)cc3)c3ccccc3)nc2)no1 (single isomer, unassigned) [107 Isomer 1] | > 2000
24 | C[C@H](CNC(C(=O)Nc1ccc(C2CC(=O)N(C)C2)cn1)c1ccccc1)c1ccc(C#N)cc1 (single isomer, unassigned) [109 Isomer 2] | > 2000
25 | Cn1cc(-c2ccc(NC(=O)C(NCCc3ccc(C#N)cc3)c3ccccc3)cc2Cl)cn1 (single isomer, unassigned) [27 Isomer 2] | > 5000
26 | CO[C@@H]1CCN(c2ccc(NC(=O)C(NCC(C)c3ccc(C#N)cc3)c3ccccc3)nc2)C1 (single isomer, unassigned) [92 Isomer 1] | 881
27 | Cn1cc(-c2ccc(NC(=O)C(NCCc3ccc(S(N)(=O)=O)cc3)c3ccccc3)cc2)cn1 (single isomer, unassigned) [4 Isomer 2] | 1370
28 | Cc1ccc(C(C)CNC(C(=O)Nc2ccc(-c3cnn(C)c3)cn2)c2ccccc2)cn1 (single isomer, unassigned) [143 Isomer 1] | > 2000
29 | CC(CNC(C(=O)Nc1ccc(N2CCN(C)S2(=O)=O)cn1)c1ccccc1)c1ccc(C#N)cc1 (single isomer, unassigned) [108 Isomer 4] | > 2000
30 | CC(CNC(C(=O)Nc1ccc(-c2cn(C)nn2)cn1)c1ccccc1)c1ccc(C#N)cc1 (single isomer, unassigned) [100 Isomer 4] | > 2000
31 | Cn1cc(-c2ccc(NC(=O)C(NCCc3ccc(C#N)cc3)c3ccccc3Cl)nc2)cn1 (single isomer, unassigned) [88 Isomer 2] | > 2000
32 | Cc1ncc(C(C)CNC(C(=O)Nc2ccc(-c3cnn(C)c3)cn2)c2ccccc2)cn1 (single isomer, unassigned) [150 Isomer 2] | > 2000
33 | CC1CN(C)C(=O)CN1c1ccc(NC(=O)C(NC[C@@H](C)c2ccc(C#N)cc2)c2ccccc2)nc1 (single isomer, unassigned) [125 Isomer 1] | 1650
34 | Cn1cc(-c2ncc(NC(=O)C(NCCc3ccc(C#N)cc3)c3ccccc3)cn2)cn1 (single isomer, unassigned) [23 Isomer 1] | > 5000
35 | Cn1cc(-c2ccc(NC(=O)C(NCCc3ccc(S(N)(=O)=O)cc3)c3ccccc3)cc2)cn1 (single isomer, unassigned) [4 Isomer 1] | 4990
36 | CC(CNC(C(=O)Nc1ccc(-c2cnn(C3CCC3)c2)cn1)c1ccccc1)c1ccc(C#N)cc1 (single isomer, unassigned) [52 Isomer 2] | > 2000
37 | N#Cc1ccc(CCNC(C(=O)Nc2ccc(N3CCC(F)(F)C3)cn2)c2ccccc2)cc1 (single isomer, unassigned) [77 Isomer 2] | 1980

Compounds with a lower IC50, results first:

Row | IC50 [nM] | SMILES
38 | 383 | CC(CNC(C(=O)Nc1ccc(-c2cnn(C(C)(C)C)c2)cn1)c1ccccc1)c1ccc(C#N)cc1 (single isomer, unassigned) [54 Isomer 1]
39 | 88 | CCN1CCN(c2ccc(NC(=O)C(NCCc3ccc(C#N)cc3)c3ccccc3)nc2)C1=O (single isomer, unassigned) [76 Isomer 1]
40 | 216 | Cn1cc(-c2ccc(NC(=O)C(NCCc3ccc(C#N)cc3)c3ccc(Cl)cc3)nc2)cn1 (single isomer, unassigned) [67 Isomer 2]
41 | 25.5 | C[C@H](CNC(C(=O)Nc1ccc(-c2cc(=O)n(C)cn2)cn1)c1ccccc1)c1ccc(C#N)cc1 (single isomer, unassigned) [106 Isomer 2]
42 | 23.7 | CC(CNC(C(=O)Nc1ccc(N2CCN(C)S2(=O)=O)cn1)c1ccccc1)c1ccc(C#N)cc1 (single isomer, unassigned) [108 Isomer 2]
43 | 309 | CC(CNC(C(=O)Nc1ccc(-c2cnn(C(C)(C)CO)c2)cn1)c1ccccc1)c1ccc(C#N)cc1 (single isomer, unassigned) [8 Isomer 1]
44 | 237 | Cn1cc(-c2ccc(NC(=O)C(NCCc3ccc(C#N)cc3Cl)c3ccccc3)nc2)cn1 (single isomer, unassigned) [51 Isomer 2]
45 | 14.3 | CC(CNC(C(=O)Nc1ccc(N2CCN(CC(F)(F)F)C(=O)C2)cn1)c1ccccc1)c1ccc(C#N)cc1 (single isomer, unassigned) [103 Isomer 2]
46 | 31.1 | CC(CNC(C(=O)Nc1ccc(-c2cnn(C3CCC3)c2)cn1)c1ccccc1)c1ccc(C#N)cc1 (single isomer, unassigned) [52 Isomer 3]
47 | 20.6 | CC(CNC(C(=O)Nc1ccc(-c2cnn(CC(F)(F)F)c2)cn1)c1ccccc1)c1ccc(C#N)cc1 (single isomer, unassigned) [83 Isomer 4]
48 | 374 | Cn1cc(-c2ccc(NC(=O)C(NCCc3ccc(C#N)cc3)c3ccc(C#N)cc3)nc2)cn1 (single isomer, unassigned) [119 Isomer 1]
49 | 503 | CC(CNC(C(=O)Nc1ccc(-c2cnn(CC(F)(F)F)c2)cn1)c1ccccc1)c1ccc(C#N)cc1 (single isomer, unassigned) [83 Isomer 3]
50 | 448 | CC(CNC(C(=O)Nc1ccc(-c2cnn(C(C)(C)C#N)c2)cn1)c1ccccc1)c1ccc(C#N)cc1 (single isomer, unassigned) [47 Isomer 1]
51 | 206 | N#Cc1ccc(CCNC(C(=O)Nc2ccc(N3CCC(F)(F)CC3)cn2)c2ccccc2)cc1 (single isomer, unassigned) [38 Isomer 1]
52 | 31.9 | Cn1cc(-c2ccc(NC(=O)C(NCCc3ccc(C#N)c(F)c3)c3ccccc3)nc2)cn1 (single isomer, unassigned) [85 Isomer 1]
53 | 20.9 | Cc1ncc(-c2ccc(NC(=O)[C@H](NC[C@H](C)c3ccc(C#N)cc3)c3ccccc3)nc2)cn1 (single isomer, unassigned; isomer 4) [6 Isomer 4]
54 | 245 | CC(CNC(C(=O)Nc1ccc(N2CCN(C)C(=O)C2)cn1)c1ccccc1)c1ccc(C#N)cc1 (single isomer, unassigned) [101 Isomer 2]
55 | 85.1 | Cn1cc(-c2ccc(NC(=O)C(NCCc3ccc(Cl)cc3C#N)c3ccccc3)nc2)cn1 (single isomer, unassigned) [94 Isomer 1]
